# From patent US20080183282A1, “Use of lipid conjugates for the coating of stents and catheters” (priority 2006, published 2008)
# System: Naja Naja Snake Venom PLA2 enzyme
# Assay: In vitro fluorometric PLA2 inhibition assay
# Format: biochemical
# Conditions: 0.1 mg/ml
# Description: The reaction of the PLA2 enzyme and the PLA2 enzyme substrate 2-(6-(7-nitrobenz-2-oxa-1,3diazol-4-yl)amino) hexanoyl-1-hexadecanoyl-sn-glycero-3-phosphocholine (NHGP) yields a product, which can be detected using a fluorometer. […] indicates inhibition of the PLA2 enzyme.
# Compound XXII and Compound XXV were solubilized and diluted in D-PBS, and tested at final concentrations of […], 0.125, 0.25, 0.5 and 1 mg/ml. […] 1 mM NHGP was diluted in D-PBS, for a final concentration of 1 μM. The positive control, Mefenamic Acid (Sigma, M-4267), was tested at a final concentration of 0.1 mg/ml. The PLA2 enzyme is derived from the Naja Naja Snake Venom (Sigma, P6139) and tested at a final concentration of 5 Units/ml. The reaction was carried out in 200 μl solution and initiated by addition of substrate. Fluorescence was read immediately and then every minute for 30 minutes for a total of 30 readings. The fluorometer was set as follows: Excitation 450/50; Emission 530/25; Gain 50.
structure (smiles),measurement,value
"Cc1cccc(Nc2ccccc2C(=O)O)c1C [mefenamic acid, Mefenamic Acid]",inhibition of the PLA2 enzyme,41%
